Source: patent US20080182893A1, “Anti-Atherogenic Composition” (SAN-EI GEN F.F.I., INC., priority 2005, published 2008)

Test system: ApoE-KO mice
Experiment: Test Example 2: influence of EMIQ and QC on atherosclerosis, thoracic-abdominal aortic lesion area
Assay type: in vivo
Details: low dose 33 μmol/kg in feed, 14 weeks, versus control group (G1), FIG. 2
Protocol: The EMIQ prepared in Preparation Example 2 and the QC prepared in Preparation Example 3 were orally administered for 14 weeks to ApoE-KO mice in order to elucidate the atherosclerosis progression inhibiting effect of these substances. The atherosclerosis progression inhibiting effect was evaluated based on the atherosclerotic lesion area rate (%) at the thoracic-abdominal aorta of the ApoE-KO mice.
Specifically, before the test the test animals (ApoE-KO mice) were housed for 11 days for environmental acclimation and were then assigned, taking into consideration the body weight and total serum cholesterol (T-cho value), into the following four groups (8 animals in each group) in a completely randomized design using a group assignment system (Statlight #11 Group Assignment, Yukms Co., Ltd., Tokyo): the control group (a group not receiving either substance, G1), a group receiving quercetin admixed in the feed at 33 μmol/kg (low-dose QC group, G2), a group receiving EMIQ admixed in the feed at 33 μmol/kg (low-dose EMIQ group, G3), and a group receiving EMIQ admixed in the feed at 330 μmol/kg (high-dose EMIQ group, G4). […]

## O=c1c(O)c(-c2ccc(O)c(O)c2)oc2cc(O)cc(O)c12 [QC, quercetin]
  thoracic-abdominal aortic atherosclerotic lesion area rate (%): no difference
